# Counter-ions that a name gives are not always drawn.
# Tests used:
# [1] = biological target: T1, human 5-hydroxytryptamine-2C (h-5-HT2C) receptor (Homo sapiens, UniProt P28335); assay: [125I]DOI binding to membranes of CHO cells expressing the h-5-HT2C receptor; details: 5-HT2c Affinity KI (nM), displacement of [125I]DOI, CHO cell membranes
# T1 sequence (P28335 33-458): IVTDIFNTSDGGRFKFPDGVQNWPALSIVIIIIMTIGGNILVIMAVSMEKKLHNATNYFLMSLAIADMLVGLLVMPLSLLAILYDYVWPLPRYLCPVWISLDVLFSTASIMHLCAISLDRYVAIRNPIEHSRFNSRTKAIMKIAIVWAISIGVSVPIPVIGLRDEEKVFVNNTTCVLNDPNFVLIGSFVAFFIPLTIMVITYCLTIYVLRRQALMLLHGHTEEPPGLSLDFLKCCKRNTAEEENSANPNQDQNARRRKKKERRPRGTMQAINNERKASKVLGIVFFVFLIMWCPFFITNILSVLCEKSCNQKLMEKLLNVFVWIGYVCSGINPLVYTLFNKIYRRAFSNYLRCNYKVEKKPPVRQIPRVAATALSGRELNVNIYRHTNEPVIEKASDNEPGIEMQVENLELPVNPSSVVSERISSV
Compound,melting point,Ki [1]
"CN1CCc2c(Cl)ccc3c2N(CC1)C1CCCC31 (centres unmarked) (as salt: fumarate) [Example 15, 6-Chloro-3-Methyl-2,3,4,5,9,10,11,11a-octahydro-1H,8bH-cyclopenta[b][1,4]diazocino[7,8,1-hi]indole]",196 to 199 °C,–
"CN1CCc2c(Cl)ccc3c2N(CC1)C1CCCCCC31 (centres unmarked) (as salt: fumarate) [Example 16, 6-Chloro-3-methyl-2,3,4,5,9,10,11,12,13,13a-decahydro-1H,8bH-cyclohepta[b][1,4]diazocino[7,8,1-hi]indole]",190 to 193 °C,–
"Clc1ccc2c3c(n4c2c1CCNCC4)CCC3 (as salt: fumarate) [Example 17, 6-Chloro-2,3,4,5,10,11-hexahydro-1H,9H-cyclopenta[b][1,4]diazocino[7,8,1-hi]indole]",188 to 190 °C,–
"Clc1ccc2c3c(n4c2c1CCNCC4)CCCC3 (as salt: fumarate) [Example 18, 6-Chloro-2,3,4,5,9,10,11,12-octahydro-1H-[1,4]diazocino[7,8,1-jk]carbazole]",208 to 210 °C,–
"Clc1ccc2c3c(n4c2c1CCNCC4)CCCCC3 (as salt: fumarate) [Example 19, 6-Chloro-2,3,4,5,10,11,12,13-octahydro-1H,9H-cyclohepta[b][1,4]diazocino[7,8,1-hi]indole]",208 to 210 °C,–
"Clc1ccc2c3c1CCNCCN3C1CCCC21 (centres unmarked) (as salt: fumarate) [Example 20, 6-Chloro-2,3,4,5,9,10,11,11a-octahydro-1H,8bH-cyclopenta[b][1,4]diazocino[7,8,1-hi]indole]",188 to 189 °C,–
"CCN1CCc2c(Cl)ccc3c2N(CC1)C1CCCC31 (centres unmarked) (as salt: fumarate) [Example 21, 6-Chloro-3-ethyl-2,3,4,5,9,10,11,11a-octahydro-1H,8bH-cyclopenta[b][1,4]diazocino[7,8,1-hi]indole]",199 to 201 °C,–
"Clc1ccc2c3c1CCNCCN3C1CCCCCC21 (centres unmarked) (as salt: fumarate) [Example 22, 6-Chloro-2,3,4,5,9,10,11,12,13,13a-decahydro-1H,8bH-cyclohepta[b][1,4]diazocino[7,8,1-hi]indole]",168 to 170 °C,–
"CCN1CCc2c(Cl)ccc3c2N(CC1)C1CCCCC31 (centres unmarked) (as salt: fumarate) [Example 23, 6-Chloro-3-ethyl-2,3,4,5,8b,9,10,11,12,12a-decahydro-1H-[1,4]diazocino[7,8,1-jk]carbazole]",184 to 187 °C,–
"CN1CCc2ccc(F)c3c4c(n(c23)CC1)CCC4 (as salt: fumarate) [Example 24, 8-Fluoro-3-methyl-2,3,4,5,10,11-hexahydro-1H,9H-cyclopenta[b][1,4]diazocino[7,8,1-hi]indole]",168 to 170 °C,–
"CN1CCc2ccc(F)c3c4c(n(c23)CC1)CCCC4 (as salt: fumarate) [Example 25, 8-Fluoro-3-methyl-2,3,4,5,9,10,11,12-octahydro-1H-[1,4]diazocino[7,8,1-jk]carbazole]",206 to 208 °C,–
"CN1CCc2ccc(F)c3c2N(CC1)C1CCCC31 (centres unmarked) (as salt: fumarate) [Example 26, 8-Fluoro-3-methyl-2,3,4,5,9,10,11,11a-octahydro-1H,8bH-cyclopenta[b][1,4]diazocino[7,8,1-hi]indole]",180 to 182 °C,–
"CN1CCc2ccc(F)c3c2N(CC1)C1CCCCC31 (centres unmarked) (as salt: fumarate) [Example 27, 8-Fluoro-3-methyl-2,3,4,5,8b,9,10,11,12,12a-decahydro-1H-[1,4]diazocino[7,8,1-jk]carbazole]",168 to 170 °C,–
"Fc1ccc2c3c1c1c(n3CCNCC2)CCC1 (as salt: fumarate) [Example 28, 8-Fluoro-2,3,4,5,10,11-hexahydro-1H,9H-cyclopenta[b][1,4]diazocino[7,8,1-hi]indole]",199 to 200 °C,–
"Fc1ccc2c3c1c1c(n3CCNCC2)CCCC1 (as salt: fumarate) [Example 29, 8-Fluoro-2,3,4,5,9,10,11,12-octahydro-1H-[1,4]diazocino[7,8,1-jk]carbazole]",177 to 179 °C,–
"Fc1ccc2c3c1C1CCCC1N3CCNCC2 (centres unmarked) (as salt: fumarate) [Example 30, 8-Fluoro-2,3,4,5,9,10,11,11a-octahydro-1H,8bH-cyclopenta[b][1,4]diazocino[7,8,1-hi]indole]",169 to 170 °C,–
"Fc1ccc2c3c1C1CCCCC1N3CCNCC2 (centres unmarked) (as salt: fumarate) [Example 31, 8-Fluoro-2,3,4,5,8b,9,10,11,12,12a-decahydro-1H[1,4]diazocino[7,8,1-jk]carbazole]",189 to 190 °C,–

Compound,melting point,Ki [1]
"CN1CCc2ccc(Cl)c3c4c(n(c23)CC1)CCC4 (as salt: fumarate) [Example 34, 8-Chloro-3-methyl-2,3,4,5,10,11-hexahydro-1H,9H-cyclopenta[b][1,4]diazocino[7,8,1-hi]indole]",209 to 211 °C,–
"CN1CCc2ccc(Cl)c3c4c(n(c23)CC1)CCCC4 (as salt: fumarate) [Example 35, 8-Chloro-3-methyl-2,3,4,5,9,10,11,12-octahydro-1H-[1,4]diazocino[7,8,1-jk]carbazole]",212 to 214 °C,–
"CN1CCc2ccc(Cl)c3c2N(CC1)C1CCCC31 (centres unmarked) (as salt: fumarate) [Example 36, 8-Chloro-3-methyl-2,3,4,5,9,10,11,11a-octahydro-1H,8bH-cyclopenta[b][1,4]diazocino[7,8,1-hi]indole]",179 to 181 °C,–
"CN1CCc2ccc(Cl)c3c2N(CC1)C1CCCCC31 (centres unmarked) (as salt: fumarate) [Example 37, 8-Chloro-3-methyl-2,3,4,5,8b,9,10,11,12,12a-decahydro-1H-[1,4]diazocino[7,8,1-jk]carbazole]",178 to 180 °C,–
"Clc1ccc2c3c1c1c(n3CCNCC2)CCC1 (as salt: fumarate) [Example 38, 8-Chloro-2,3,4,5,10,11-hexahydro-1H,9H-cyclopenta[b][1,4]diazocino[7,8,1-hi]indole]",226 to 228 °C,–
"Clc1ccc2c3c1c1c(n3CCNCC2)CCCC1 (as salt: fumarate) [Example 39, 8-Chloro-2,3,4,5,9,10,11,12-octahydro-1H-[1,4]diazocino[7,8,1-jk]carbazole]",199 to 201 °C,–
"Clc1ccc2c3c1C1CCCC1N3CCNCC2 (centres unmarked) (as salt: fumarate) [Example 40, 8-Chloro-2,3,4,5,9,10,11,11a-octahydro-1H,8bH-cyclopenta[b][1,4]diazocino[7,8,1-hi]indole]",169 to 170 °C,–
"Clc1ccc2c3c1C1CCCCC1N3CCNCC2 (centres unmarked) (as salt: fumarate) [Example 41, 8-Chloro-2,3,4,5,8b,9,10,11,12,12a-decahydro-1H-[1,4]diazocino[7,8,1-jk]carbazole]",199 to 200 °C,–
"CN1CCc2cccc3c2N(CC1)C1CCSCC31 (centres unmarked) (as salt: fumarate) [Example 44, 3-Methyl-2,3,4,5,9,10,11,12-octahydro-1H,9H-[1,4]diazocino[7,8,1-hi]thiopyrano[4,3-b]indole]",187 to 189 °C,–
"c1cc2c3c(c1)C1CCCC1N3CCNCC2 (centres unmarked) (as salt: hydrochloride) [Example 4, 2,3,4,5,9,10,11,11a-Octahydro-1H,8bH-cyclopenta[b][1,4]diazocino[7,8,1-hi]indole]",137 to 140 °C,–
"Fc1ccc2c3c1[C@H]1CCCC[C@H]1N3CCNCC2 (single isomer, unassigned) (as salt: fumarate) [Example 32, (+)-(8bR*,12aR*)-8-Fluoro-2,3,4,5,8b,9,10,11,12,12a-decahydro-1H-[1,4]diazocino[7,8,1-jk]carbazole]",> 130 °C,–
"Fc1ccc2c3c1[C@H]1CCCC[C@H]1N3CCNCC2 (single isomer, unassigned) (as salt: fumarate) [Example 33, (−)-(8bR*,12aR*)-8-Fluoro-2,3,4,5,8b,9,10,11,12,12a-decahydro-1H-[1,4]diazocino[7,8,1-jk]carbazole]",94 to 96 °C,–
"Clc1ccc2c3c1[C@H]1CCCC[C@H]1N3CCNCC2 (single isomer, unassigned) (as salt: fumarate) [Example 42, (+)-(8bR*,12aR*)-8-Chloro-2,3,4,5,8b,9,10,11,12,12a-decahydro-1H-[1,4]diazocino[7,8,1-jk]carbazole]",170 to 173 °C,–
"Clc1ccc2c3c1[C@H]1CCCC[C@H]1N3CCNCC2 (single isomer, unassigned) (as salt: fumarate) [Example 43, (−)-(8bR*,12aR*)-8-Chloro-2,3,4,5,8b,9,10,11,12,12a-decahydro-1H-[1,4]diazocino[7,8,1-jk]carbazole]",168 to 171 °C,–
"c1cc2c3c(c1)[C@H]1CCCC[C@H]1N3CCNCC2 (single isomer, unassigned) (as salt: fumarate) [Example 47, (+)-(8bR*,12aR*)-2,3,4,5,8b,9,10,11,12,12a-Decahydro-1H-[1,4]diazocino[7,8,1-jk]carbazole]",139 to 140 °C,–
"c1cc2c3c(c1)[C@H]1CCC[C@H]1N3CCNCC2 (single isomer, unassigned) (as salt: hydrochloride) [Example 45, (+)-(8bR*,11aR*)-2,3,4,5,9,10,11,11a-Octahydro-1H,8bH-cyclopenta[b][1,4]diazocino[7,8,1-hi]indole]",> 130 °C,–
"CN1CCc2cccc3c4c(n(c23)CC1)CCSC4 [Example 11, 3-Methyl-2,3,4,5,11,12-hexahydro-1H,9H-[1,4]diazocino[7,8,1-hi]thiopyrano[4,3-b]indole]",123 to 125 °C,38 nM

# — US7012089B2, “[1,4]Diazocino[7,8,1-hi]indole derivatives as antipsychotic and antiobesity agents” (Wyeth, priority 2002, dated 2006)
